The values below come from US20230172204A1 (BASF SE, priority 2020, published 2023).

Assay [1] deals with Phakopsora pachyrhizi (F129L). Put plainly: Protective control of soybean rust on soybeans (PHAKPA P6). In kind it is in vivo. Conditions: for % PHAKPA (F129L) Disease level P6 at 4 ppm: protective P6, 4 ppm; for % PHAKPA (F129L) Disease level P6 at 4 ppm / % PHAKPA (F129L) Disease level P6 at 16 ppm: soybean rust F129L; for % PHAKPA (F129L) Disease level P6 at 16 ppm: protective P6, 16 ppm; for PHAKPA (F129L) Disease level (%) P6 at 16 ppm / PHAKPA (F129L) Disease level (%) P6 at 4 ppm: P6 protective, % diseased leaf area.

The test system of assay [2] is Phakopsora pachyrhizi (F129L). Put plainly: Protective control of soybean rust on soybeans (PHAKPA P2). In kind it is in vivo. The following applies: for % PHAKPA (F129L) Disease level P2 at 4 ppm: protective P2, 4 ppm; for % PHAKPA (F129L) Disease level P2 at 4 ppm / % PHAKPA (F129L) Disease level P2 at 16 ppm: soybean rust F129L; for % PHAKPA (F129L) Disease level P2 at 16 ppm: protective P2, 16 ppm.

The mark [3] stands for this setting: P2 protective, % diseased leaf area.

`CNC(=O)/C(=N/OC)c1cccc(C)c1CO/N=C(\C)c1ccc(C#N)c(C(F)(F)F)c1` [compound 17]: in assay [1], the “% PHAKPA (F129L) Disease level P6 at 4 ppm” value came to 63% and the “% PHAKPA (F129L) Disease level P6 at 16 ppm” value was determined as 57%. Further, in assay [2], the “% PHAKPA (F129L) Disease level P2 at 4 ppm” value is recorded as 70% and the “% PHAKPA (F129L) Disease level P2 at 16 ppm” value is given as 50%.

`CNC(=O)/C(=N/OC)c1cccc(C)c1CO/N=C(\C)c1ccc(Cl)c(F)c1OC(F)(F)F` [compound 449]: in assay [1], the “% PHAKPA (F129L) Disease level P6 at 4 ppm” value turned out to be 57% and the “% PHAKPA (F129L) Disease level P6 at 16 ppm” value is given as 9%. In addition, in assay [2], the “% PHAKPA (F129L) Disease level P2 at 4 ppm” value is 33% and the “% PHAKPA (F129L) Disease level P2 at 16 ppm” value was determined as 10%.

Take `CO/N=C(/C(=O)OC)c1cccc(C)c1CO/N=C(\C)c1ccccc1C(F)(F)F` [Ex. 36]: in assay [1], the “PHAKPA (F129L) Disease level (%) P6 at 16 ppm” value was 57%, the “% PHAKPA (F129L) Disease level P6 at 4 ppm” value came to 100% and the “% PHAKPA (F129L) Disease level P6 at 16 ppm” value was found to be 43%. The “PHAKPA (F129L) Disease level (%) P2 at 16 ppm” value in assay [2] (setting [3]) is 47%. Also, in assay [2], the “% PHAKPA (F129L) Disease level P2 at 4 ppm” value amounted to 100% and the “% PHAKPA (F129L) Disease level P2 at 16 ppm” value amounted to 42%.

Take `CNC(=O)/C(=N/OC)c1cccc(C)c1CO/N=C(\C)c1c(F)cc(F)cc1OC(F)(F)F` [compound 344]: in assay [1], the “% PHAKPA (F129L) Disease level P6 at 4 ppm” value is 16% and the “% PHAKPA (F129L) Disease level P6 at 16 ppm” value is reported as 0%. Also, in assay [2], the “% PHAKPA (F129L) Disease level P2 at 4 ppm” value worked out at 6% and the “% PHAKPA (F129L) Disease level P2 at 16 ppm” value was found to be 0%.

With `CNC(=O)/C(=N/OC)c1cccc(C)c1CO/N=C(\C)c1c(Cl)ccc(F)c1OC(F)(F)F` [compound 440], in assay [1], the “% PHAKPA (F129L) Disease level P6 at 4 ppm” value came out at 73% and the “% PHAKPA (F129L) Disease level P6 at 16 ppm” value is reported as 23%. For the same compound, in assay [2], the “% PHAKPA (F129L) Disease level P2 at 4 ppm” value is 93% and the “% PHAKPA (F129L) Disease level P2 at 16 ppm” value amounted to 23%.

Take `CO/N=C(/C(=O)OC)c1cccc(C)c1CO/N=C(\C)c1ccc(Cl)cc1` [Ex. 154]: in assay [1], the “PHAKPA (F129L) Disease level (%) P6 at 16 ppm” value was 17%, the “% PHAKPA (F129L) Disease level P6 at 4 ppm” value worked out at 63% and the “% PHAKPA (F129L) Disease level P6 at 16 ppm” value was 9%. Further, the “PHAKPA (F129L) Disease level (%) P2 at 16 ppm” value in assay [2] (setting [3]) stood at 25%. Further, in assay [2], the “% PHAKPA (F129L) Disease level P2 at 4 ppm” value is 30% and the “% PHAKPA (F129L) Disease level P2 at 16 ppm” value was 13%.

In the case of `CO/N=C(/C(=O)OC)c1cccc(C)c1CO/N=C(\C)c1cccc(-c2noc(C(F)(F)F)n2)c1` [compound 66], in assay [1], the “% PHAKPA (F129L) Disease level P6 at 4 ppm” value turned out to be 93% and the “% PHAKPA (F129L) Disease level P6 at 16 ppm” value came out at 87%. For the same compound, in assay [2], the “% PHAKPA (F129L) Disease level P2 at 4 ppm” value stood at 100% and the “% PHAKPA (F129L) Disease level P2 at 16 ppm” value was found to be 70%.

Consider `CO/N=C(/C(=O)OC)c1cccc(C)c1CO/N=C(\C)c1ccc(F)cc1C(F)(F)F` [compound 263], for which, in assay [1], the “% PHAKPA (F129L) Disease level P6 at 4 ppm” value came to 73% and the “% PHAKPA (F129L) Disease level P6 at 16 ppm” value is 22%. In assay [2], the “% PHAKPA (F129L) Disease level P2 at 4 ppm” value was 80% and the “% PHAKPA (F129L) Disease level P2 at 16 ppm” value is reported as 15%.

As to `CO/N=C(/C(=O)OC)c1cccc(C)c1CO/N=C(\C)c1ccc(OC(F)(F)F)cc1F` [compound 269], in assay [1], the “% PHAKPA (F129L) Disease level P6 at 4 ppm” value worked out at 18% and the “% PHAKPA (F129L) Disease level P6 at 16 ppm” value is reported as 0%. In assay [2], the “% PHAKPA (F129L) Disease level P2 at 4 ppm” value was 5% and the “% PHAKPA (F129L) Disease level P2 at 16 ppm” value came to 0%.

With `CO/N=C(/C(=O)OC)c1cccc(C)c1CO/N=C(/c1ccc(F)cc1)C(F)F` [Ex. 21], in assay [1], the “% PHAKPA (F129L) Disease level P6 at 4 ppm” value amounted to 97% and the “% PHAKPA (F129L) Disease level P6 at 16 ppm” value was determined as 88%. In assay [2], the “% PHAKPA (F129L) Disease level P2 at 4 ppm” value was found to be 100% and the “% PHAKPA (F129L) Disease level P2 at 16 ppm” value stood at 77%.

On to `COC=C(C(=O)OC)c1cccc(C)c1CON=C(C)c1ccccc1OC(F)(F)F` [compound 462], for which, in assay [1], the “% PHAKPA (F129L) Disease level P6 at 4 ppm” value came out at 55% and the “% PHAKPA (F129L) Disease level P6 at 16 ppm” value is given as 10%. Further, in assay [2], the “% PHAKPA (F129L) Disease level P2 at 4 ppm” value came to 37% and the “% PHAKPA (F129L) Disease level P2 at 16 ppm” value turned out to be 6%.

As for `CNC(=O)/C(=N/OC)c1cccc(C)c1CO/N=C(\C)c1ccccc1CC(F)(F)F` [compound 223], in assay [1], the “% PHAKPA (F129L) Disease level P6 at 4 ppm” value was found to be 28% and the “% PHAKPA (F129L) Disease level P6 at 16 ppm” value is 0%. Also, in assay [2], the “% PHAKPA (F129L) Disease level P2 at 4 ppm” value is given as 4% and the “% PHAKPA (F129L) Disease level P2 at 16 ppm” value amounted to 0%.

With `CO/C=C(/C(=O)OC)c1cccc(C)c1CO/N=C(\C)c1c(Cl)ccc(F)c1OC(F)(F)F` [compound 442], in assay [1], the “% PHAKPA (F129L) Disease level P6 at 4 ppm” value came to 80% and the “% PHAKPA (F129L) Disease level P6 at 16 ppm” value was 77%. In assay [2], the “% PHAKPA (F129L) Disease level P2 at 4 ppm” value amounted to 100% and the “% PHAKPA (F129L) Disease level P2 at 16 ppm” value came out at 93%.

With `CNC(=O)/C(=N/OC)c1ccccc1CO/N=C(\C)c1cccc(C(F)(F)F)c1` [reference compound], the “PHAKPA (F129L) Disease level (%) P6 at 4 ppm” value in assay [1] is 38%. The “PHAKPA (F129L) Disease level (%) P2 at 4 ppm” value in assay [2] (P2 protective, 4 ppm, % diseased leaf area) is recorded as 12%.

Take `CNC(=O)/C(=N/OC)c1cccc(C)c1CO/N=C(\C)c1ccccc1OC1CC1` [compound 329]: in assay [1], the “% PHAKPA (F129L) Disease level P6 at 4 ppm” value is on record as 100% and the “% PHAKPA (F129L) Disease level P6 at 16 ppm” value amounted to 73%. Also, in assay [2], the “% PHAKPA (F129L) Disease level P2 at 4 ppm” value is 100% and the “% PHAKPA (F129L) Disease level P2 at 16 ppm” value is 53%.

With `CNC(=O)/C(=N/OC)c1cccc(C)c1CO/N=C(\C)c1c(F)cccc1OC(F)F` [compound 202], in assay [1], the “% PHAKPA (F129L) Disease level P6 at 4 ppm” value was 100% and the “% PHAKPA (F129L) Disease level P6 at 16 ppm” value was 47%. In assay [2], the “% PHAKPA (F129L) Disease level P2 at 4 ppm” value worked out at 90% and the “% PHAKPA (F129L) Disease level P2 at 16 ppm” value came out at 22%.

For the compound `CO/C=C(/C(=O)OC)c1cccc(C)c1CO/N=C(\C)c1ccc(Br)cc1C(F)(F)F` [compound 445], in assay [1], the “% PHAKPA (F129L) Disease level P6 at 4 ppm” value is recorded as 30% and the “% PHAKPA (F129L) Disease level P6 at 16 ppm” value is 2%. Also, in assay [2], the “% PHAKPA (F129L) Disease level P2 at 4 ppm” value is recorded as 15% and the “% PHAKPA (F129L) Disease level P2 at 16 ppm” value amounted to 1%.

For the compound `CC/C(=N\OCc1c(C)cccc1/C(=N\OC)C(=O)NC)c1ccccc1` [compound 294], in assay [1], the “% PHAKPA (F129L) Disease level P6 at 4 ppm” value is recorded as 2% and the “% PHAKPA (F129L) Disease level P6 at 16 ppm” value is reported as 0%. Moreover, in assay [2], the “% PHAKPA (F129L) Disease level P2 at 4 ppm” value was found to be 1% and the “% PHAKPA (F129L) Disease level P2 at 16 ppm” value is 1%.

For `CNC(=O)/C(=N/OC)c1cccc(C)c1CO/N=C(\SC)c1cccc(C(F)(F)F)c1` [drawing 984, reference compound], in assay [1], the “PHAKPA (F129L) Disease level (%) P6 at 4 ppm” value is recorded as 43%. In assay [2] (P2 protective, 1 ppm, % diseased leaf area), the “PHAKPA (F129L) Disease level (%) P2 at 1 ppm” value is 32%.

Regarding `CO/N=C(/C(=O)OC)c1cccc(C)c1CO/N=C(\C)c1cccc(OC)c1` [compound 78], in assay [1], the “% PHAKPA (F129L) Disease level P6 at 4 ppm” value is given as 30% and the “% PHAKPA (F129L) Disease level P6 at 16 ppm” value amounted to 1%. In assay [2], the “% PHAKPA (F129L) Disease level P2 at 4 ppm” value turned out to be 40% and the “% PHAKPA (F129L) Disease level P2 at 16 ppm” value is reported as 1%.

`CNC(=O)/C(=N/OC)c1cccc(C)c1CO/N=C(\C)c1cccc(/C(C)=N/OC)c1` [Ex. 15]: in assay [1], the “% PHAKPA (F129L) Disease level P6 at 4 ppm” value came out at 24% and the “% PHAKPA (F129L) Disease level P6 at 16 ppm” value amounted to 1%. Moreover, in assay [2], the “% PHAKPA (F129L) Disease level P2 at 4 ppm” value is 4% and the “% PHAKPA (F129L) Disease level P2 at 16 ppm” value worked out at 0%.

For the compound `CNC(=O)/C(=N/OC)c1cccc(C)c1CO/N=C(\C)c1cc(Cl)cc(Cl)c1F` [compound 167], in assay [1], the “% PHAKPA (F129L) Disease level P6 at 4 ppm” value came to 9% and the “% PHAKPA (F129L) Disease level P6 at 16 ppm” value is 0%. For the same compound, in assay [2], the “% PHAKPA (F129L) Disease level P2 at 4 ppm” value is on record as 2% and the “% PHAKPA (F129L) Disease level P2 at 16 ppm” value worked out at 0%.
